pKd: −log10 of the molar value.
Experiments:
PbdA S87A/S237A [1] = biological target: T1, PbdA S87A/S237A (Rhodococcus jostii, UniProt Q0SCI3, S235A/S85A); assay: Substrate binding to PbdA S87A/S237A variant by spectral titration; set-up: species or system Rhodococcus jostii RHA1
T1 construct: hexaHis (N, cleaved yes); made in house; host or cells: PbdA variant: E. coli BL-21 λ (DE3); PbdB: Rhodococcus jostii RHA1
Protocol: UV-visible spectroscopy was conducted with a Cary 60 spectrophotometer equipped with a thermostatted cuvette holder at 25 °C. Scans of purified proteins diluted in 20 mM Mops, I = 0.1 M, pH 7.2 were taken between 250 and 700 nm. Heme concentration was calculated as described previously ([35]). Carbon monoxide binding was determined by reduction of PbdA diluted in 20 mM Mops, I = 0.1 M, pH 7.2 as above by a few grains of […]. CO was bubbled into the reduced enzyme for approximately 60 s at a rate of one bubble per second. Dissociation constants (Kd) were determined by titration of ligands diluted into enzyme buffer from 1 M stocks prepared in dimethyl sulfoxide into PbdA diluted in 20 mM Mops, I = 0.1 M, pH 7.2. Spectra take upon addition of substrate were subtracted from the spectrum of the enzyme, and peak-to-trough distance was plotted by ligand concentration. Kd values were determined by fitting a hyperbolic equation to the data as described previously ([23], [36]). The proportion of high-spin heme iron was determined using the approximate peak-to-trough extinction coefficient (ε ≈ 100 mM^−1 cm^−1) ([36]).

PbdA S87A/S237A [2] = biological target: T1, PbdA S87A/S237A; assay: Activity and coupling assay of PbdA S87A/S237A variant with PbdB; assay type: biochemical, Rhodococcus jostii RHA1
Protocol: (§1) For activity measurements 0.25 to 1 μM of PbdA and PbdB were combined in a 200 μl cuvette in 20 mM Mops, pH 7.2 with substrate diluted in the same buffer. NADH was added to 350 μM to initiate the reaction. For HPLC analysis, enzymatic reactions were acidified by adding acetic acid to 10% final concentration, centrifuged (16,000×g for 10 min), and filtered through a 0.2 μm polytetrafluoroethylene membrane. Samples were run over a Luna 5 μm C18(2) 100 Å 150 × 3 mm column (Phenomenex) at 0.7 ml min^−1 by a Waters 2695 separation HPLC module. Samples were eluted with a 16.8 ml linear gradient from 1% methanol plus 0.1% formic acid in water to 100% methanol plus 0.1% formic acid and monitored at 280 nm with a Waters 2996 photodiode array detector. Concentrations were determined by interpolation on a standard curve of 0 to 1 mM of authentic standard. NADH concentration was measured by absorbance at 340 nm, ε = 6.22 mM^-1 cm^-1. Coupling was calculated from the ratio of rate of aromatic turnover, as determined by HPLC, and the rate of NADH oxidation, determined spectroscopically. Buffer ionic strength was adjusted by addition of NaCl, as appropriate. Apparent steady-state kinetic parameters were calculated by fitting Michaelis–Menten equations to initial velocity of reactions at various concentrations of aromatic substrate (LEONORA).
^aExperiments were performed using air-saturated MOPS (I = 0.1 M), pH 7.2, at 25 °C. The rate of aromatic substrate turnover was based on the appearance of O-demethylated product. Standard deviation is shown in parentheses.

PbdA = biological target: T2, PbdA (Rhodococcus jostii, UniProt Q0SCI3)
T2 sequence (Q0SCI3 1-400): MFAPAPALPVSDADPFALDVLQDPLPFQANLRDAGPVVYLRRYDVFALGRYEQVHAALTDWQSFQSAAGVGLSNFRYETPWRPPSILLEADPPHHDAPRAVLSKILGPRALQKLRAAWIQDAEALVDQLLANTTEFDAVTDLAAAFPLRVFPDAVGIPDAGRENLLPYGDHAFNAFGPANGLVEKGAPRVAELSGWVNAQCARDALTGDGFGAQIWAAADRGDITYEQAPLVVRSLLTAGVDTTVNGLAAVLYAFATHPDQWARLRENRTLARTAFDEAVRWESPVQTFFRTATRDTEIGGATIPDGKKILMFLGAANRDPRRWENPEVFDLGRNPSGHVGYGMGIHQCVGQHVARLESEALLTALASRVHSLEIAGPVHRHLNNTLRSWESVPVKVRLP
Protocol: We then measured coupling under optimum conditions for other substrates. […] Finally, we measured the apparent steady-state kinetic parameters of the PbdA reaction under conditions of maximal coupling (Fig. S4).
as §1

T1 sequence (Q0SCI3 entry or part of it S85A/S235A): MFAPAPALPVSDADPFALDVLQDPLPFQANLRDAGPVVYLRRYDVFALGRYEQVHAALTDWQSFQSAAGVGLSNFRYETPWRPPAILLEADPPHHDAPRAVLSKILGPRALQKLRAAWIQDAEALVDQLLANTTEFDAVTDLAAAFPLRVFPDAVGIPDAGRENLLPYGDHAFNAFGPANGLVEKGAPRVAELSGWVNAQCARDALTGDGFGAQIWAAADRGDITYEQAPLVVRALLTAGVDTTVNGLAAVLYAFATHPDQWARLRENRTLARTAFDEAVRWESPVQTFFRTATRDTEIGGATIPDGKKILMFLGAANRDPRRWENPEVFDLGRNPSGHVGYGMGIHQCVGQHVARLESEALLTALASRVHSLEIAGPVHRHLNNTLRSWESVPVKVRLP

For `COc1ccc(C(=O)O)cc1` [p-MBA, p-methoxybenzoate], the pKd (PbdA S87A/S237A [1]) was 4.15, the “ΔG°” value (PbdA S87A/S237A [1]; S87A/S237A variant, binding energy) was -5.7 kcal/mol and the “ΔΔG°” value (PbdA S87A/S237A [1]; S87A/S237A variant, comparison of ΔG° of variant to wild type) was 1.7 kcal/mol. The Coupling (PbdA S87A/S237A [2]) was 40 (2) %, the Specific activity (PbdA S87A/S237A [2]; O-demethylation) was 180 (10) U μg P450^-1 and the NADH depletion rate (PbdA S87A/S237A [2]; air-saturated MOPS (I = 0.1 M), pH 7.2, 25 °C) was 400 (30) U mg P450^-1. The “Rate of Aromatic turnover” value (PbdA S87A/S237A [2]; appearance of O-demethylated product) was 170 (10) U mg P450^-1, the “kcat (apparent)” value (PbdA; WT PbdA with PbdB, air-saturated Mops (I = 0.1 M), pH 7.2, 25 °C, SD in parentheses) was 0.37 (0.02) s^−1 and the Specific activity (PbdA; WT PbdA, O-demethylation, SD in brackets) was 2700 (100) U μg P450^-1. The NADH depletion rate (PbdA; WT PbdAB, air-saturated MOPS (I = 0.1 M), pH 7.2, 25 °C, SD in parentheses) was 2700 (100) U mg P450^-1, the “Rate of Aromatic turnover” value (PbdA; WT PbdAB, appearance of O-demethylated product (disappearance of p-EB), SD in parentheses) was 2700 (200) U mg P450^-1 and the Coupling (PbdA; WT PbdAB, ratio of aromatic turnover rate to NADH oxidation rate) was 100 (3) %. The Km (PbdA; read-out: KM (apparent), WT PbdA with PbdB, air-saturated Mops (I = 0.1 M), pH 7.2, 25 °C, SD in parentheses) was 18 µM.
